Data set [1] deals with Salmonella typhimurium (TA98, TA100).
Data set [2] has as its target T1, CB1 receptor (Mus musculus (Mouse), UniProt P47746). The data set is described as follows: CB1 receptor radioligand binding assay, [3H]CP-55,940 displacement, mouse brain membranes. The settings on record: mouse (m) CB1 receptor; read-out: CB1R Ki (nM) (m). The method, then: (§1) Radioligand binding assays: Binding affinity was determined by a radioligand binding assay. The different BB8-conjugates binding to CB1 and CB2 receptors was assessed in competition displacement assays using [^3H]CP-55.940 as the radioligand and crude membranes from mouse brain for CB1 receptor and human kidney cells for CB2 receptor.
CB1 receptor binding assay: Mouse brain membranes were used as the source material for CB1 receptors. The displacement of specifically bound tritiated CP-55.940 from these membranes using a standard filtration assay was used to determine the Ki values for the test compounds. Briefly. 20 μg of protein was incubated for 1 h at 30° C. in the presence of 0.5 nM [^3H]CP-55,940 and various concentrations (10^−5M-10^−11M) of test compound/control, final volume of 1 mL. The incubation was terminated by rapid filtration and washing, and the amount of specifically bound [^3H]CP-55,940 was determined. Briefly, membranes with bound [^3H]CP-55,940 were separated and washed from free ligand by vacuum filtration, adsorbing the membrane onto a Whatman glass microfiber filter paper ([…], Cat #1821271). Finally, the Whatman filter paper with adsorbed membranes was cut and placed in scintillation liquid (Ultima Gold) for 1 h at 25° C. followed by a β counter reading of bound [^3H]CP-55,940 radioligand. All data were in triplicates with Ki values determined using GraphPad Prism 7.02 analysis software. […] In some cases, membranes from human source were used to determine CB1 receptor binding affinity.

Data set [3] deals with T1, CB1 receptor. Nature of the data set: [35S]GTPγS binding assay for CB1 receptor, mouse brain membranes. The format is biochemical. The settings on record: nature of binding: agonist/antagonist/inverse agonist. The method, then:
For CB1 receptor-mouse brains were dissected and P2 membranes prepared and resuspended at ˜2 μg protein/μL in 1 ml assay buffer (50 mM Tris HCl, 9 mM MgCl2, 0.2 mM EDTA, 150 mM NaCl; pH 7.4). Ligand-stimulated [^35S]GTPγS binding was assayed as described previously (Tam et al., JCI 2010). Briefly, membranes (10 μg protein) were incubated in assay buffer containing 100 μM GDP, 0.05 nM [^35S]GTPγS, test compounds at various concentrations (CP55940/Rimonabant as controls and test compounds for BB8 conjugates), and 1.4 mg/mL fatty acid-free BSA in siliconized glass tubes. Membranes with bound ligand ([^35S]GTPγS) were separated from free ligand by vacuum filtration and were analyzed using β counter as described above. Non-specific binding was determined using 10 μM GTPS (cold GTP). Basal binding was assayed in the absence of the tested compound and in the presence of GDP.

Another data set has as its target CB2 receptor (Homo sapiens (Human), UniProt P34972). Nature of the data set: CB2 receptor radioligand binding assay, [3H]CP-55,940 displacement, human kidney membranes. Conditions: for Ki: read-out: hCB2R Ki. The method, then: as §1
CB2 receptor binding assay: Human kidney membranes were used as the source material for CB2 receptors. The displacement of specifically bound tritiated CP-55,940 from these membranes using a standard filtration assay was used to determine the Ki values for the test compounds. Briefly, 1.25 μg of protein was incubated for 1.5 h at 30° C. in the presence of 0.5 nM [^3H]CP-55,940 and various concentrations (10^−5M-10^−11M) of test compound/control, final volume of 1 mL. The incubation was terminated by rapid filtration and washing, and the amount of specifically bound [^3H]CP-55,940 was determined. Briefly, membranes with bound [^3H]CP-55,940 were separated and washed from free ligand by vacuum filtration, adsorbing the membrane onto a Whatman glass microfiber filter paper ([…], Cat #1821271). Finally, the Whatman filter paper with adsorbed membranes was cut and placed in scintillation liquid (Ultima Gold) for 1 h at 25° C. followed by a β counter reading of bound [^3H]CP-55,940 radioligand. All data were in triplicates with Ki values determined using GraphPad Prism 7.02 analysis software.

Another data set relates to MDR1-MDCKII cells. The data set is described as follows: MDR1-MDCK II cell permeation assay (bi-directional permeability, P-gp efflux). The format is in vitro ADME. The method, then:
(§2) Test and reference compounds were diluted with transport buffer (HBSS with 10 mM Hepes, pH 7.4) from stock solution to a concentration of 2 μM (DMSO<1%) and applied to the apical or basolateral side of the cell monolayer. Permeation of the test compounds from A to B direction or B to A direction was determined in duplicate with/without P-gp inhibitor (GF120918, 10 μM). […] The plate was incubated for 2.5 hours in CO2 incubator at 37±1° C., with 5% CO2 at saturated humidity without shaking. In addition, the efflux ratio of each compound was also determined. Test and reference compounds were quantified by LC-MS/MS analysis based on the peak area ratio of analyte/IS.
(§3) The in vitro bi-directional permeability across MDR1-MDCKII cells including P-glycoprotein (Pgp, ABCB1) efflux in the presence and absence of a P-gp inhibitor is an indicator as to the tendency of an orally administered compound to penetrate the brain.

The test system of a further data set is P-gp (MDR1, ABCB1). Described as above. The format is in vitro ADME. Conditions: dog; for Papp at 2.5 h, 2 μM: A to B. The method, then: as §2, §3
The test system of a further data set is HepG2 Cells. Nature of the data set: Cell Viability Assay in HepG2 Cells at 72 h. Type of data set: cell-based, human. The settings on record: HepG2, 72 h, read-out: Relative IC50. The method, then: The liver plays a central role in transforming and clearing chemicals, and therefore is susceptible to toxicity of these agents. BNS808, BNS822 and other selected compounds were tested in the HepG2 assay using […] to evaluate cytotoxicity.

Where [4] appears, read: MDCK-MDR1, pH 7.4, with GF120918, 10 μM, efflux ratio in the presence of P-gp inhibitor GF120918, read-out: MDR1 B:A/A:B (+P-gp inhibitor).
The mark [5] stands for this setting: MDCK-MDR1, pH 7.4, efflux ratio, without P-gp inhibitor, read-out: MDR1 B:A/A:B.

Each structure is given as a SMILES string. Read-outs that look alike come from different tables or passages of the source.

Sequence of CB2 receptor (P34972 whole entry): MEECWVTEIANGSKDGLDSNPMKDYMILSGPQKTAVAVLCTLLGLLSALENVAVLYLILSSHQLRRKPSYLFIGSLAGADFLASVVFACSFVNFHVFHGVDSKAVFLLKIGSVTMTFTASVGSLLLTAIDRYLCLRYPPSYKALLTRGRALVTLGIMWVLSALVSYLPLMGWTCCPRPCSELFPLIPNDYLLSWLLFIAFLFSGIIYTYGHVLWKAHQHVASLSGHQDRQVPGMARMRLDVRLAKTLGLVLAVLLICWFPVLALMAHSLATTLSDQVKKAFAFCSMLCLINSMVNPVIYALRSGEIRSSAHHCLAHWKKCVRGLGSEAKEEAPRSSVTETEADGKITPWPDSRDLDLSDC
T1 sequence (P47746 whole entry): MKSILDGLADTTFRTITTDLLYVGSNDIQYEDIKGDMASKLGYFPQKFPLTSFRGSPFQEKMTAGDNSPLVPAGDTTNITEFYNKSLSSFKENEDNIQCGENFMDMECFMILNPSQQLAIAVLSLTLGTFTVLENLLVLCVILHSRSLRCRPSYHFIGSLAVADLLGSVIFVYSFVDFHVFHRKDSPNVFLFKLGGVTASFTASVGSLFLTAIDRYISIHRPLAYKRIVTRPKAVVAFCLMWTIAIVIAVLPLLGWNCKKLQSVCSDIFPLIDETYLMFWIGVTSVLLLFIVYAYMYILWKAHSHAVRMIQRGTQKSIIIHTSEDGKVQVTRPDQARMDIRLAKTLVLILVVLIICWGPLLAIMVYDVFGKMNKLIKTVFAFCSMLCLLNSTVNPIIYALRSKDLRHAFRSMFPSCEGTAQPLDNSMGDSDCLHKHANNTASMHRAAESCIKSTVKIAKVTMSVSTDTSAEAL

As for `Nc1ccc2cc3ccccc3cc2c1` [2-Aminoanthracene, reference compound], the “AMES result (positive/negative)” value in data set [1] (TA98, S9 yes) was “positive”; in data set [1] (TA100, S9 yes), “positive”.
Take `O=[N+]([O-])c1ccc2c(c1)Cc1ccccc1-2` [2-Nitroflurene, reference compound]: the “AMES result (positive/negative)” value in data set [1] (TA98, S9 no) was “positive”.
The term Ki denotes the dissociation constant of the complex between target and ligand, obtained from inhibition or displacement. For `O=C(NC1CCCOc2c1nn(-c1ccccc1Cl)c2-c1ccc(Cl)cc1)c1ccccn1` (stereo not shown) [BNS810, N-[2-(2-chlorophenyl)-3-(4-chlorophenyl)-5,6,7,8-tetrahydrooxepino[3,2-c]pyrazol-8-yl]pyridine-2-carboxamide], the figures for the Ki at CB1 receptor [2] and on CB2 receptor were 64.5 nM and 988 nM, respectively. The “mCB1R GTPγ[^35S] (activity)” value on CB1 receptor [3] is listed as “Antagonist”.
As for `O=C(NC1CCCOc2c1nn(-c1ccccc1Cl)c2-c1ccc(Cl)cc1)c1ccncn1` (stereo not shown) [BNS811, N-[2-(2-chlorophenyl)-3-(4-chlorophenyl)-5,6,7,8-tetrahydrooxepino[3,2-c]pyrazol-8-yl]pyrimidine-4-carboxamide], the figures for the Ki at CB1 receptor [2] and on CB2 receptor were 65.6 nM and 963 nM, respectively. Also, the “mCB1R GTPγ[^35S] (activity)” value on CB1 receptor [3] is on record as “Antagonist”.
Turning to `O=C(NC1CCCOc2c1nn(-c1ccccc1Cl)c2-c1ccc(Cl)cc1)c1ccncc1` (stereo not shown) [BNS812, N-[2-(2-chlorophenyl)-3-(4-chlorophenyl)-5,6,7,8-tetrahydrooxepino[3,2-c]pyrazol-8-yl]pyridine-4-carboxamide], the inhibition constant (Ki) came out at 16.3 nM on CB1 receptor [2] and 1300 nM at CB2 receptor. The “mCB1R GTPγ[^35S] (activity)” value on CB1 receptor [3] is listed as “Antagonist”.
For the compound `CNC(=O)NC1CCCOc2c1nn(-c1ccccc1Cl)c2-c1ccc(Cl)cc1` (stereo not shown) [BNS813, 1-[2-(2-chlorophenyl)-3-(4-chlorophenyl)-5,6,7,8-tetrahydrooxepino[3,2-c]pyrazol-8-yl]-3-methyl-urea], the Ki at CB1 receptor [2] came to 1130 nM.
Broadly, the Papp is the rate of passage across a membrane or cell layer, normalised by area and donor concentration. Read a high Papp as fast passage. For the compound `CCOC(=O)N1CCC(C(=O)NC2CCCOc3c2nn(-c2ccccc2Cl)c3-c2ccc(Cl)cc2)CC1` (stereo not shown) [BNS816, Ethyl-4-((2-(2-chlorophenyl)-3-(4-chlorophenyl)-5,6,7,8-tetrahydro-2H-oxepino[3,2-c]pyrazol-8-yl)carbamoyl)piperidine-1-carboxylate], the Ki at CB1 receptor [2] worked out at 8.93 nM; on CB2 receptor, 1530 nM. For the same compound, at CB1 receptor [3], the “mCB1R GTPγ[^35S] (activity)” value is recorded as “Inverse Agonist”. Also, the P-gp substrate entry with MDR1-MDCKII cells was “No”. In the data set on MDR1-MDCKII cells, the “Rank Papp” value is on record as “High”. Moreover, in the data set with MDR1-MDCKII cells (efflux ratio, without P-gp inhibitor), the “MDR1 B:A/A:B” value was 0.77. Besides, the efflux ratio at 2.5 h, 2 μM in the data set with P-gp (MDR1, ABCB1) (setting [4]) worked out at 0.61. In addition, the apparent permeability coefficient (Papp) at 2.5 h, 2 μM in the data set with P-gp (MDR1, ABCB1) (MDCK-MDR1, pH 7.4) stood at 6.99 ×10⁻⁶ cm/s.
For `O=C(NC1CCCOc2c1nn(-c1ccccc1Cl)c2-c1ccc(Cl)cc1)C1CCN(C(=O)c2cccnc2)CC1` (stereo not shown) [BNS817, N-[2-(2-chlorophenyl)-3-(4-chlorophenyl)-5,6,7,8-tetrahydrooxepino[3,2-c]pyrazol-8-yl]-1-(pyridine-3-carbonyl)piperidine-4-carboxamide], at CB1 receptor [2], the inhibition constant Ki amounted to 290 nM. Moreover, the “mCB1R GTPγ[^35S] (activity)” value on CB1 receptor [3] is reported as “Inverse Agonist”. For the same compound, in the data set on MDR1-MDCKII cells, the P-gp substrate result was “P-gp substrates and Yes”; the “Rank Papp” value was “High”. For the same compound, the efflux ratio at 2.5 h, 2 μM with P-gp (MDR1, ABCB1) (setting [4]) is 0.64. Further, in the data set on P-gp (MDR1, ABCB1) (MDCK-MDR1, pH 7.4), the apparent permeability (Papp) at 2.5 h, 2 μM amounted to 8.09 ×10⁻⁶ cm/s. In addition, the efflux ratio at 2.5 h, 2 μM in the data set with P-gp (MDR1, ABCB1) (setting [5]) worked out at 1.92. Moreover, at CB2 receptor, the “hCB2R Ki (nM)” value is on record as “No binding”.
Turning to `CNCC(=O)NC1CCCOc2c1nn(-c1ccccc1Cl)c2-c1ccc(Cl)cc1` (stereo not shown) [BNS819, N-[2-(2-chlorophenyl)-3-(4-chlorophenyl)-5,6,7,8-tetrahydrooxepino[3,2-c]pyrazol-8-yl]-2-(methylamino)acetamide], on CB1 receptor [2], the Ki amounted to 922 nM.
Regarding `O=C(NC1CCCOc2c1nn(-c1ccccc1Cl)c2-c1ccc(Cl)cc1)[C@H]1CCCN1` (stereo partly drawn) [BNS820, (2R)—N-[2-(2-chlorophenyl)-3-(4-chlorophenyl)-5,6,7,8-tetrahydrooxepino[3,2-c]pyrazol-8-yl]pyrrolidine-2-carboxamide], the Ki at CB1 receptor [2] was found to be 877 nM.
`O=C(NC1CCCOc2c1nn(-c1ccccc1Cl)c2-c1ccc(Cl)cc1)[C@@H]1CCCN1` (stereo partly drawn) [BNS821, (2S)—N-[2-(2-chlorophenyl)-3-(4-chlorophenyl)-5,6,7,8-tetrahydrooxepino[3,2-c]pyrazol-8-yl]pyrrolidine-2-carboxamide]: the Ki on CB1 receptor [2] was found to be 1400 nM.
For `CC(C)(Oc1ccc(C(=O)c2ccc(Cl)cc2)cc1)C(=O)NC1CCCOc2c1nn(-c1ccccc1Cl)c2-c1ccc(Cl)cc1` (stereo not shown) [BNS823, 2-[4-(4-chlorobenzoyl)phenoxy]-N-[2-(2-chlorophenyl)-3-(4-chlorophenyl)-5,6,7,8-tetrahydrooxepino[3,2-c]pyrazol-8-yl]-2-methyl-propanamide], the inhibition constant Ki at CB1 receptor [2] was determined as 56.7 nM. In addition, the “mCB1R GTPγ[^35S] (activity)” value on CB1 receptor [3] is “Antagonist”. In addition, in the data set on MDR1-MDCKII cells, the P-gp substrate entry was “No” and the “Rank Papp” value is given as “Low”. For the same compound, in the data set with P-gp (MDR1, ABCB1) (setting [4]), the efflux ratio at 2.5 h, 2 μM is over 30.9. This compound yielded an apparent permeability coefficient (Papp) at 2.5 h, 2 μM in the data set with P-gp (MDR1, ABCB1) (MDCK-MDR1, pH 7.4) of under 0.003 ×10⁻⁶ cm/s. Also, the efflux ratio at 2.5 h, 2 μM in the data set with P-gp (MDR1, ABCB1) (setting [5]) is over 27.9. At CB2 receptor, the “hCB2R Ki (nM)” value is “No binding”.
Turning to `CS(=O)(=O)CC(=O)N1CCC(C(=O)NC2CCCOc3c2nn(-c2ccccc2Cl)c3-c2ccc(Cl)cc2)CC1` (stereo not shown) [BNS824, N-[2-(2-chlorophenyl)-3-(4-chlorophenyl)-5,6,7,8-tetrahydrooxepino[3,2-c]pyrazol-8-yl]-1-(2-methylsulfonylacetyl)piperidine-4-carboxamide], the Ki at CB1 receptor [2] worked out at 456 nM.
As a reminder, the IC50 is the concentration that inhibits the measured activity by half. Regarding `O=C(NC1CCCOc2c1nn(-c1ccccc1Cl)c2-c1ccc(Cl)cc1)C1CCN(S(=O)(=O)c2ccc(Cl)cc2)CC1` (stereo not shown) [BNS825, N-[2-(2-chlorophenyl)-3-(4-chlorophenyl)-5,6,7,8-tetrahydrooxepino[3,2-c]pyrazol-8-yl]-1-(4-chlorophenyl)sulfonyl-piperidine-4-carboxamide], the Ki was 1.6 nM on CB1 receptor [2] and 127 nM on CB2 receptor. Besides, the “mCB1R GTPγ[^35S] (activity)” value on CB1 receptor [3] is listed as “Antagonist”. Besides, the IC50 in the data set on HepG2 Cells (Homo sapiens) is over 100000 nM.
Regarding `CN[C@@H]1C[C@H]2O[C@@](C)([C@@H]1OC)n1c3ccccc3c3c4c(c5c6ccccc6n2c5c31)C(=O)NC4` [Staurosporine, reference compound], in the data set with HepG2 Cells, the half-maximal inhibitory concentration (IC50) came out at 60 nM.

The values above are taken from patent US20240189287A1, “PERIPHERALLY RESTRICTED CB1 RECEPTOR BLOCKERS AND USES THEREOF” (BIONANOSIM (BNS) LTD, priority 2021, published 2024).
